Experiments:
Format in all cases: cell-based, C57BL/6 mice
[1] = test system: LYZ secretion by Paneth cells in organoid culture; assay: Lysozyme functional secretion assay (EnzChek), basal and CCh-stimulated
Description: In addition to the morphological, proteomic, and transcriptional characterization of PC phenotype in ENR+CD and ENR, Applicants sought to measure physiological function by assessing stimulant-induced secretion of antimicrobials. Applicants assessed the dynamics of LYZ accumulation in media supernatant of cultures following media wash, basally and after stimulation with carbachol (CCh), a cholinergic agonist known to induce PC secretion. […] The observed PC secretion in response to CCh is consistent with observations made in ex vivo crypts, though over appreciably longer time scales, likely due to the added diffusion barrier of the organoid structure and matrigel. Applicants next identified how LYZ secretion changes over the course of differentiation. Beginning with an ISC-enriched population, Applicants assayed for secreted LYZ in cell culture supernatants every two days for six days of ENR+CD culture, following a 24-hour stimulation with CCh or without (basal collection/non-stimulated).
Lysozyme functional secretion assay. Lysozyme secretion was measured using a Lysozyme Assay Kit (EnzChek; Thermo Fisher). Briefly, cells suspended in Matrigel in 24-well plates were washed (basal culture media 3X) and either supplemented with 500 μL of basal culture media or basal culture media plus 10 μM Carbachol (CCh, Sigma Aldrich) for 24 hours at 37° C. Following stimulation, culture plates were spun at high speed (>2000 g) for 5 min at RT to pellet cell debris and loose Matrigel. 25 μL of conditioned supernatant was removed from the top of each well and quantified per manufacturer's protocol.

[2] = test system: in vitro PCs (CD24+ & LYZ+) in ENR+CD culture; NUPR1; assay: Trifluoperazine (NUPR1 inhibition) treatment of ENR+CD cultures, flow cytometry of viability and CD24/LYZ populations
Description: Lastly, Applicants sought to use this physiologically-improved in vitro PC system (ENR+CD) to identify novel factors potentially supportive of PC survival or differentiation. […] Intriguingly, Nupr1 is a stress-response gene, known to promote cellular survival and senescence through mediation of autophagy, and has primarily been studied in the context of cancer. Autophagy and stress response have repeatedly been implicated through GWAS study in PCs in IBD, however Nupr1 has only ever been reported in a single IBD GWAS study, and its role in PC biology has not been formally investigated. With the model, Applicants sought to test the role of NUPR1 on in vitro PC survival, through the small molecule inhibition of NUPR1 with trifluoperazine (TFP).
Flow cytometry. Cell clusters were isolated from Matrigel as previously described and resuspended in TrypLE Express at 37° C. for 20 mins to dissociate into single cells. Dissociated cells were centrifuged at 300 g for 3 mins at 4° C. The pellet was resuspended in FACS buffer (1% FBS in PBS, Thermo Fisher Scientific) and strained into a 5-mL filter cap tube using a 40 μm filter. The cell suspension was transferred to a flow prep microcentrifuge tube and centrifuged at 300 rcf for 3 min. Cell pellets were resuspended in a Zombie violet dye (BioLegend 100X) in FACS buffer for viability staining followed with 1% PFA fixation for 20 minutes at RT. Pellets were permeabilized for 20 minutes at RT with staining buffer (0.5% Tween-20 in FACS buffer, Sigma), and co-stained with rabbit anti-human FITC-Lyz (100X) and rat anti-mouse APC-CD24 (100X) antibodies diluted in staining buffer for 45 min at RT. Flow cytometry was performed using a BD LSR II HTS (BD; Koch Institute Flow Cytometry Core at MIT). Initial settings and laser voltages were determined with unstained, single channel stains or secondary-only controls (data not shown). Flow cytometry data was analyzed using FlowJo v10.7 software.

[3] = test system: organoid single cells (clusters ENR, ENR+CV, ENR+CD); assay: Seq-Well single-cell RNA-sequencing and transcriptional scoring of ENR+CV, ENR and ENR+CD organoids; conditions: p<2.2×10^−16
Description: Applicants performed scRNA-seq using the Seq-Well platform on cells from ENR+CD and the precursor ENR+CV conditions to analyze alongside conventional ENR organoids. To ensure experimental robustness, Applicants assessed quality metrics for number of genes, unique molecular identifiers (UMIs), mitochondrial genes, and ribosomal genes by cluster, all of which fell within expectation (FIG. 11).
To assess sub-population structure and provide a more robust measure of composition beyond canonical marker genes, Applicants performed unsupervised KNN graph-based clustering on the captured cells (FIG. 4C,D and Table 1 for full gene lists), distinguishing four clusters in each treatment condition. Applicants then scored individual clusters according to the amount of the transcriptome within each cell dedicated to synthesizing the respective enriched proteins from the bulk proteome data.
To confirm and extend the findings of pathway-based modulation, Applicants scored clusters for enrichment or depletion of canonical growth factor-induced pathways.

[4] = test system: intracellular proteome of ENR+CD and ENR organoids; assay: LC-MS/MS TMT proteomics of ENR+CD versus ENR organoids; conditions: for change: up = enriched in ENR+CD, down = enriched in ENR, FDR<0.05 and log fold change cut-off
Description: Because PCs are highly secretory, protein-rich cells, Applicants sought to assess the total intracellular proteome between conditions through liquid chromatography mass spectrometry (LC-MS/MS)-based proteomics. Applicants quantified relative protein abundance across eight samples using isobaric mass tag labeling from four ENR and four ENR+CD samples (M1-1 through M2-2, first digit denotes biological donor, second digit denotes technical replicate) (FIG. 3A). Samples were processed and analyzed in a single 10-plex by LC-MS/MS (FIG. 9A).
To affirm the reproducibility of the associated proteins in the ENR+CD-enriched proteome, Applicants performed relative quantification within differentiation sets.
Mass spectrometry proteomics sample preparation, sequencing, and quantification. Organoid cell pellets were isolated from Matrigel with mechanical dissociation and washed (cold PBS 5X) to remove residual extracellular protein. Proteins were extracted from cell pellets with 8 M urea (Sigma), reduced with 5 mM DTT (Thermo Fisher Pierce) for 45 minutes, alkylated with 10 mM IAA (Sigma) for 45 minutes in the dark, and double digested with both Lysyl Endopeptidase “LysC” (Wako) and trypsin (Promega) overnight at RT. A small aliquot of cellular lysate was removed from each sample for protein quantification via the Pierce™ BCA Protein Assay Kit (Pierce). After proteolytic digestion, the samples were quenched using formic acid to a final concentration of 1.0% and subsequently desalted on 10 mg OASIS HLB solid phase columns (Waters).
The peptides were labeled with TMT-10 isobaric mass tag reagent according to manufacturer's instructions (ThermoFisher Scientific). The peptides were labeled at a 1:8 ratio of peptide to TMT reagent, followed by 1-hour incubation at RT with bench top shaking at 850 rpm. After incubation, a […] of labeled tryptic peptide was removed from each labeled condition, desalted with C18 stage tips, and analyzed via LC-MS/MS using a Thermo Fisher Q Exactive Plus Hybrid Mass Spectrometer (QE-Plus) coupled to a Thermo Fisher EASY-nLC 1000 liquid chromatograph to ensure isobaric label incorporation >95%. An additional 1.0 μg of labeled tryptic peptide was removed from each channel, mixed together, desalted on a C18 stage tip, and analyzed via LC-MS to ensure equal relative protein loads. During these quality control steps, the labeled peptides were stored, unquenched at −80° C.

[5] = doses above luM, in combination with ENR+CD for six days
[6] = protein abundance, ENR+CD versus ENR organoids, aggregate of the four sample pairs
[7] = protein abundance, ENR+CD versus ENR organoids, replicate M1-1, log2 ratio
[8] = protein abundance, ENR+CD versus ENR organoids, replicate M1-2, log2 ratio
[9] = protein abundance, ENR+CD versus ENR organoids, replicate M2-1, log2 ratio
[10] = protein abundance, ENR+CD versus ENR organoids, replicate M2-2, log2 ratio
[11] = ENR+CD versus ENR organoids, sample pairs in aggregate (n=4, 2 technical replicates from two biological donors)
[12] = protein abundance ratio ENR+CD versus ENR organoids, sample pair M1-1, LC-MS/MS TMT proteomics
[13] = protein abundance ratio ENR+CD versus ENR organoids, sample pair M1-2, LC-MS/MS TMT proteomics
[14] = protein abundance ratio ENR+CD versus ENR organoids, sample pair M2-1, LC-MS/MS TMT proteomics
[15] = protein abundance ratio ENR+CD versus ENR organoids, sample pair M2-2, LC-MS/MS TMT proteomics

## C[N+](C)(C)CCOC(N)=O [CCh, carbachol]
[1]; 10 μM, six day ENR+CD culture
  plateau of LYZ accumulation in supernatant: plateaued around six hours post-wash
[1]; 10 μM, six day ENR+CD culture, post-wash
  LYZ accumulation in media supernatant after stimulation: rapid accumulation of LYZ within two hours
[1]; 24-hour stimulation, days four and six of ENR+CD culture
  functional LYZ secretion (stimulated relative to basal) over differentiation: Notable increases in functional secretion

## CN1CCN(CCCN2c3ccccc3Sc3ccc(C(F)(F)F)cc32)CC1 [TFP, trifluoperazine]
[2]; added for two days following a six-day course of ENR+CD
  cellular viability: profound, but not total, decline in cellular viability
[2]; concurrent with 6-day ENR+CD differentiation (FIG. 7C)
  toxicity, preference to PCs (CD24+ & LYZ+) and PC-like populations: dose-dependent toxicity
[2]; [5]
  cell death during differentiation: near total cell death
  identity of surviving cells: primarily non-Paneth
[2]; two days following six-day ENR+CD
  selectivity of toxicity between cell populations: selectively more toxic to PC and PC-progenitor populations relative to non-PC populations
[2]; two-day treatment following 6-day ENR+CD differentiation (FIG. 7D)
  toxicity, preference to PCs (CD24+ & LYZ+) and PC-like populations: dose-dependent toxicity

## Cc1c[nH]c(-c2cnc(NCCNc3ccc(C#N)cn3)nc2-c2ccc(Cl)cc2Cl)n1 [CHIR, CHIR99021]
[3]; all ENR+CD clusters vs ENR-4
  Wnt target gene enrichment, effect size: > 0.999

## C[C@H](NC(=O)Cc1cc(F)cc(F)c1)C(=O)N[C@H](C(=O)OC(C)(C)C)c1ccccc1 [DAPT]
[3]; ENR+CD-4 vs ENR-4
  Notch target gene depletion, effect size: −0.658

## O70472
[4]; [6]
  Average logFC: 1.172
[4]; [7]
  M1-1 Log2 Median Normalized: 1.419
[4]; [8]
  M1-2 Log2 Median Normalized: 0.87
[4]; [9]
  M2-1 Log2 Median Normalized: 1.3875
[4]; [10]
  M2-2 Log2 Median Normalized: 1.011
[4]
  change: up

## P02802
[4]; [6]
  Average logFC: −1.725
[4]; [7]
  M1-1 Log2 Median Normalized: −2.19
[4]; [8]
  M1-2 Log2 Median Normalized: −2.322
[4]; [9]
  M2-1 Log2 Median Normalized: −1.3715
[4]; [10]
  M2-2 Log2 Median Normalized: −1.016
[4]
  change: down

## P09405
[4]; [6]
  Average logFC: −1.217
[4]; [7]
  M1-1 Log2 Median Normalized: −1.377
[4]; [8]
  M1-2 Log2 Median Normalized: −0.807
[4]; [9]
  M2-1 Log2 Median Normalized: −1.0695
[4]; [10]
  M2-2 Log2 Median Normalized: −1.615
[4]
  change: down

## P18894
[4]; [6]
  Average logFC: −1.376
[4]; [7]
  M1-1 Log2 Median Normalized: −1.222
[4]; [8]
  M1-2 Log2 Median Normalized: −1.706
[4]; [9]
  M2-1 Log2 Median Normalized: −1.8305
[4]; [10]
  M2-2 Log2 Median Normalized: −0.745
[4]
  change: down

## Q60997
[4]; [11]
  Average logFC: −1.332
[4]; [12]
  M1-1 Log2 Median Normalized: −1.643
[4]; [13]
  M1-2 Log2 Median Normalized: −0.987
[4]; [14]
  M2-1 Log2 Median Normalized: −1.1555
[4]; [15]
  M2-2 Log2 Median Normalized: −1.543
[4]
  change: down

## Q91VE6
[4]; [11]
  Average logFC: −1.411
[4]; [12]
  M1-1 Log2 Median Normalized: −1.492
[4]; [13]
  M1-2 Log2 Median Normalized: −1.242
[4]; [14]
  M2-1 Log2 Median Normalized: −1.0275
[4]; [15]
  M2-2 Log2 Median Normalized: −1.884
[4]
  change: down

## P84102 (MTRGNQRELARQKNMKKQSDSVKGKRRDDGLSAAARKQRDSEIMQQKQKKANEKKEEPK; full-length; UniProt P84102 1-59, looked up)
[4]; [6]
  Average logFC: 1.286
[4]; [7]
  M1-1 Log2 Median Normalized: 1.517
[4]; [8]
  M1-2 Log2 Median Normalized: 0.63
[4]; [9]
  M2-1 Log2 Median Normalized: 2.2205
[4]; [10]
  M2-2 Log2 Median Normalized: 0.775
[4]
  change: up

## Q80SU7
[4]; [11]
  Average logFC: −1.224
[4]; [12]
  M1-1 Log2 Median Normalized: −1.279
[4]; [13]
  M1-2 Log2 Median Normalized: −0.758
[4]; [14]
  M2-1 Log2 Median Normalized: −1.2235
[4]; [15]
  M2-2 Log2 Median Normalized: −1.338
[4]
  change: down

## Q4ACU6
[4]; [11]
  Average logFC: −1.637
[4]; [12]
  M1-1 Log2 Median Normalized: −1.525
[4]; [13]
  M1-2 Log2 Median Normalized: −1.512
[4]; [14]
  M2-1 Log2 Median Normalized: −1.6745
[4]; [15]
  M2-2 Log2 Median Normalized: −1.835
[4]
  change: down

## P07309
[4]; [6]
  Average logFC: 1.249
[4]; [7]
  M1-1 Log2 Median Normalized: 1.309
[4]; [8]
  M1-2 Log2 Median Normalized: 0.951
[4]; [9]
  M2-1 Log2 Median Normalized: 1.2255
[4]; [10]
  M2-2 Log2 Median Normalized: 1.511
[4]
  change: up
